According to the supplement of paper PMC13380429:

Columns and labels:
Settings in all cases: 72 h
Caco-2 [1] = experiment: cell viability relative to DMSO; higher = less toxic
Calu-3 [2] = experiment: as above
HepG2 [3] = experiment: as above
U2OS [4] = experiment: as above
Vero E6 [5] = experiment: as above
HepG2 [6] = experiment: relative viability EC50 (midpoint between 100% and the lowest measured viability); higher = less toxic
U2OS [7] = experiment: as above
Vero E6 [8] = experiment: as above
Caco-2 [9] = experiment: drug sensitivity score (DSS) for viability; higher = more toxic; extreme values may be limits of the assay
Calu-3 [10] = experiment: as above
HepG2 [11] = experiment: as above
U2OS [12] = experiment: as above
Vero E6 [13] = experiment: as above
Caco-2 [14] = experiment: relative viability EC50 (midpoint between 100% and the lowest measured viability); higher = less toxic
Calu-3 [15] = experiment: as above

SMILES | cell viability (Caco-2 [1]; 1 nM) | cell viability (Caco-2 [1]; 10 nM) | cell viability (Caco-2 [1]; 100 nM) | cell viability (Caco-2 [1]; 1000 nM) | cell viability (Caco-2 [1]; 10000 nM) | cell viability (Calu-3 [2]; 1 nM) | cell viability (Calu-3 [2]; 10 nM) | cell viability (Calu-3 [2]; 100 nM) | cell viability (Calu-3 [2]; 1000 nM) | cell viability (Calu-3 [2]; 10000 nM) | cell viability (HepG2 [3]; 1 nM) | cell viability (HepG2 [3]; 10 nM) | cell viability (HepG2 [3]; 100 nM) | cell viability (HepG2 [3]; 1000 nM) | cell viability (HepG2 [3]; 10000 nM) | cell viability (U2OS [4]; 1 nM) | cell viability (U2OS [4]; 10 nM) | cell viability (U2OS [4]; 100 nM) | cell viability (U2OS [4]; 1000 nM) | cell viability (U2OS [4]; 10000 nM) | cell viability (Vero E6 [5]; 1 nM) | cell viability (Vero E6 [5]; 10 nM) | cell viability (Vero E6 [5]; 100 nM) | cell viability (Vero E6 [5]; 1000 nM) | cell viability (Vero E6 [5]; 10000 nM) | relative viability EC50 (HepG2 [6]) | relative viability EC50 (U2OS [7]) | relative viability EC50 (Vero E6 [8]) | drug sensitivity score (Caco-2 [9]) | drug sensitivity score (Calu-3 [10]) | drug sensitivity score (HepG2 [11]) | drug sensitivity score (U2OS [12]) | drug sensitivity score (Vero E6 [13]) | relative viability EC50 (Caco-2 [14]) | relative viability EC50 (Calu-3 [15])
N#Cc1c(Oc2ccc(F)c(NC(=O)Cc3cccc(C(F)(F)F)c3)c2)ccc2nc(NC(=O)C3CC3)sc12 [TAK-632] | 100% | 99.4% | 91.8% | 84.9% | 55.6% | 105% | 105% | 110% | 93% | 61.6% | 99.9% | 106% | 85.1% | 29% | 17.2% | 97.9% | 102% | 94.8% | 99% | 37.8% | 100% | 106% | 104% | 79% | 32.3% | 0.289 µM | 3.05 µM | 1.37 µM | 3.8 | 3 | 14.9 | 3.5 | 6.8 | – | –
CC[N+](CC)(CCCNC1=CC(=O)C(NCCC[N+](CC)(CC)Cc2ccccc2)=CC1=O)Cc1ccccc1 [benzoquinonium-dibromide] | 94.5% | 98.6% | 95.4% | 96.3% | 91.7% | 103% | 92.9% | 108% | 104% | 96.8% | 96.3% | 106% | 95.2% | 100% | 95% | 94.6% | 94.4% | 96.8% | 95.8% | 98.3% | – | – | – | – | – | > 10 µM | > 10 µM | – | 0 | 0 | 0 | 0 | – | > 10 µM | > 10 µM
CC(=O)O/N=C1\C(=O)N(Cc2cc(Cl)ccc2Cl)c2ccc(Cl)cc21 | 97.3% | 92% | 104% | 91% | 83.9% | 103% | 90.7% | 93.9% | 98.4% | 61.8% | 97.9% | 97.7% | 104% | 108% | 86.9% | 100% | 99% | 97.7% | 96.6% | 97.3% | 98.3% | 105% | 97.3% | 98.7% | 97.9% | > 10 µM | > 10 µM | > 10 µM | 1 | 2.1 | 0 | 0 | 0 | > 10 µM | –
O=C(O)[C@H](O)c1ccccc1 [mandelic-acid] | 91.9% | 84.2% | 104% | 94.4% | 91.6% | – | – | – | – | – | 110% | 96.7% | 103% | 96.4% | 102% | 98.7% | 100% | 99.3% | 106% | 94.8% | 100% | 99.1% | 93.8% | 97.3% | 98.9% | > 10 µM | > 10 µM | > 10 µM | 0 | – | 0 | 0 | 0 | > 10 µM | –
C[C@@]12C[C@@]3(O)O[C@@H](O1)[C@]1(COC(=O)c4ccccc4)[C@H]3C[C@@]12O[C@@H]1O[C@H](CO)[C@@H](O)[C@H](O)[C@H]1O [paeoniflorin] | 103% | 101% | 96% | 93.5% | 96% | 91% | 98.6% | 107% | 87% | 98.7% | 100% | 100% | 102% | 107% | 95.9% | 101% | 99.8% | 104% | 102% | 101% | – | – | – | – | – | > 10 µM | > 10 µM | – | 0 | 0 | 0 | 0 | – | > 10 µM | > 10 µM
CS(=O)(=O)c1ccc(Oc2cc(F)cc(C#N)c2)c2c1[C@H](O)C(F)(F)C2 [PT-2385] | 102% | 94.9% | 88.9% | 86.3% | 95.2% | – | – | – | – | – | 103% | 107% | 97.4% | 97.2% | 104% | 103% | 97.3% | 98.7% | 100% | 99.4% | 101% | 99.6% | 100% | 96.9% | 105% | > 10 µM | > 10 µM | > 10 µM | 1.7 | – | 0 | 0 | 0 | > 10 µM | –
COc1cc2c(N3CCN(C(=O)Nc4ccc(OC(C)C)cc4)CC3)ncnc2cc1OCCCN1CCCCC1 [tandutinib] | 113% | 102% | 112% | 105% | 98.2% | 109% | 97% | 94.7% | 108% | 111% | 110% | 112% | 112% | 109% | 84.1% | – | – | – | – | – | – | – | – | – | – | > 10 µM | – | – | 0 | 0 | 0.1 | – | – | > 10 µM | > 10 µM
O=C(NNC(=O)c1ccc(CNS(=O)(=O)c2ccc(F)c(Cl)c2)cc1)c1ccccc1 [TCN201] | 109% | 108% | 99.1% | 99.8% | 103% | – | – | – | – | – | 89.3% | 108% | 97% | 90.7% | 97.7% | 96.3% | 99.8% | 97.7% | 94% | 96.4% | 104% | 98.5% | 98.4% | 102% | 102% | > 10 µM | > 10 µM | > 10 µM | 0 | – | 0 | 0 | 0 | > 10 µM | –
Cc1ccnc(NC(=O)C(C)c2cccc(C(=O)c3ccccc3)c2)c1 (stereo not given) [piketoprofen] | 96.7% | 87.3% | 91.7% | 93.5% | 91.5% | – | – | – | – | – | 103% | 89.3% | 111% | 107% | 80.8% | 105% | 102% | 97.7% | 103% | 95.3% | 98.3% | 98.8% | 99.8% | 106% | 96.1% | > 10 µM | > 10 µM | > 10 µM | 0 | – | 0.3 | 0 | 0 | > 10 µM | –
Cc1c(C)c2c(c(C)c1OC(=O)CCC(=O)O)CC[C@@](C)(CCC[C@H](C)CCC[C@H](C)CCCC(C)C)O2 [D-alpha-tocopheryl-succinate] | 98.2% | 104% | 106% | 96.5% | 102% | – | – | – | – | – | 95.4% | 109% | 95.3% | 106% | 113% | – | – | – | – | – | 97.8% | 101% | 97.9% | 102% | 111% | > 10 µM | – | > 10 µM | 0 | – | 0 | – | 0 | > 10 µM | –
CCCCC(F)(F)[C@@]1(O)CC[C@H]2[C@@H](CC(=O)[C@@H]2CCCCCCC(=O)O)O1 [lubiprostone] | 108% | 101% | 101% | 103% | 97.8% | 106% | 102% | 111% | 98.6% | 98.8% | – | – | – | – | – | 104% | 102% | 104% | 99.8% | 104% | – | – | – | – | – | – | > 10 µM | – | 0 | 0 | – | 0 | – | > 10 µM | > 10 µM
c1ccc(CCCCN2CCC(c3ccccc3)CC2)cc1 [4-PPBP] | 94.7% | 94.9% | 89.8% | 86.1% | 84.4% | 93% | 111% | 96.7% | 95.1% | 69.3% | 99.8% | 103% | 101% | 93.8% | 77.9% | 90.7% | 91.2% | 96.1% | 94.7% | 84.6% | 100% | 102% | 102% | 99.7% | 90% | > 10 µM | > 10 µM | > 10 µM | 1.4 | 2.2 | 1.6 | 0 | 0 | > 10 µM | –
COc1c(O)cc2c(c1O)[C@@H]1O[C@H](CO)[C@@H](O)[C@H](O)[C@H]1OC2=O [bergenin] | 80.5% | 106% | 80.2% | 83.1% | 80.5% | – | – | – | – | – | 108% | 79.5% | 98.8% | 88.8% | 96.1% | 96.7% | 97.8% | 95.2% | 97.7% | 97.5% | 106% | 103% | 103% | 90.5% | 101% | > 10 µM | > 10 µM | > 10 µM | 4.5 | – | 0 | 0 | 0 | > 10 µM | –
